These compounds were tested against T1, Nuclear factor erythroid 2-related factor 2 (Homo sapiens, UniProt Q16236) (assay: Activation of Nrf2 (unknown origin) expressed in human HepG2 cells after 5 hrs by ARE-driven luciferase reporter gene assay).
T1 sequence (Q16236 whole entry): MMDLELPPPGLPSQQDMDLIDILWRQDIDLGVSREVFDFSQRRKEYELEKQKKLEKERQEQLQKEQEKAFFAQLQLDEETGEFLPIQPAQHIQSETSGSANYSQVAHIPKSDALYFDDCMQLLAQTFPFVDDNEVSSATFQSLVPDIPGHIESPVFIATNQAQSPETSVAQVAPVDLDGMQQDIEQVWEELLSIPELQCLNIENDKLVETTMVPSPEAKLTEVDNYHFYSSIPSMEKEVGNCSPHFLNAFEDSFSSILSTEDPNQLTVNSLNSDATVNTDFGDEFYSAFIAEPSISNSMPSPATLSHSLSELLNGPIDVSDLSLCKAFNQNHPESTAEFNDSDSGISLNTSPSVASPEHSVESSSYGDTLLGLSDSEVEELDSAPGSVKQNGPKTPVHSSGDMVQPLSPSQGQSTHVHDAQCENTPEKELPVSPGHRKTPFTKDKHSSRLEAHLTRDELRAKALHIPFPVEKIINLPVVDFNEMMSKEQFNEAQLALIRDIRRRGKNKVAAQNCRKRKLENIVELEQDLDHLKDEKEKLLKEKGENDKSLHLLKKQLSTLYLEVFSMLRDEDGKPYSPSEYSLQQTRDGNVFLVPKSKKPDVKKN

Which EC50 does the source give for Cc1ccc(C(=O)/C=C/c2ccccc2)c(C)c1 here?
The EC50 was 21.1 µM.

With COc1cc(/C=C2\CCC/C(=C\c3cc(OC)cc(OC)c3)C2=O)cc(OC)c1 as the compound, how does the EC50 read?
Its EC50 is 5.3 µM.

Which EC50 does the source give for O=C(/C=C/c1ccccc1O)/C=C/c1ccccc1O [US9187397, 20q] here?
The EC50 was 3.3 µM.

How did the EC50 turn out when COc1cc(/C=C/C(=O)CC(=O)/C=C/c2ccc(O)c(OC)c2)ccc1O [CHEBI:3962] was run?
The EC50 was 21 µM.

COc1cc(/C=C/C(=O)/C=C/c2ccc(O)c(OC)c2)ccc1O [(1E,4E)-1,5-Bis-(4-hydroxy-3-methoxy-phenyl)-penta-1,4-dien-3-one] was tested. Which EC50 did it give?
The EC50 was 9.9 µM.

How did the EC50 turn out when COc1cc(OC)c(OC)cc1/C=C/C(=O)/C=C/c1cc(OC)c(OC)cc1OC [Go-Y021] was run?
Its EC50 is 1.32 µM.
